pEC50: −log10 of the molar value.
Key:
[1] = tested on: HCV genotype 1a Y93H resistant mutant replicon; assay: Replicon assay against resistant mutant 1a Y93H (transient transfection); type: cell-based; details: Hepatitis C virus, read-out: Genotype 1a Y93H
Experimental: Assay 3: Replicon Assays Against Resistant Mutants […]
Potencies of test compounds against additional mutations of interest were determined using transient transfection assays. These mutants included genotype 1a Y93C, Y93H, M28T, Q30E, Q30K, L31M, and Y93N. The mutation was first introduced into the parental plasmid by site-directed mutagenesis. The replicon plasmid was then linearized and in vitro transcribed to RNA. The RNA was used to transiently transfect Huh-LUNET cells (obtained from ReBLikon GmbH, Schriesheim, Germany) by electroporation, and the potencies of test compounds against the mutants were determined as previously described.

HCV genotype 1a replicon = HCV genotype 1a replicon assay (NS3 protease activity readout); type: cell-based, hepatitis C virus; details: for pEC50: Hepatitis C virus, read-out: Genotype 1a, HCV genotype 1a replicon; for Genotype 1a: HCV genotype 1a replicon
Method in brief: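 Genotype 1a subgenomic replicon cells (APC89, Huh7.5) were treated with compound dose-responses in G418-free medium, 0.5% DMSO final, for 48 or 72 hours at 37° C. Lysate NS3/4a protease activity measured with 15 μM FRET substrate, 20 min at 37° C (ex 340/em 509 nm); EC50 by 4-parameter fit.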

HCV genotype 1b replicon = HCV genotype 1b replicon assay (Renilla luciferase readout); type: cell-based, hepatitis C virus; details: for pEC50: Hepatitis C virus, read-out: Genotype 1b; for Genotype 1b: HCV genotype 1b replicon
Method in brief: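 Huh7-derived APC144 subgenomic replicon cells carrying Renilla luciferase–NS3-NS5B, seeded 10,000/well without G418, then treated with compound dose-responses for 48 h at 37 °C (0.5% DMSO final). Luciferase signal fitted by 4-parameter model to EC50, reported as pEC50.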

[2] = tested on: HCV genotype 3a NS5A chimeric replicon; assay: Replicon assay against NS5A sequence of genotype 3a, intergenotypic chimera; type: cell-based; details: Hepatitis C virus, read-out: Genotype 3a
Experimental: (§1) Assay 4: Replicon Assays Against NS5A Sequences of Other Genotypes
(§2) Potencies of test compounds against NS5A sequences of other genotypes were determined by creating intergenotypic chimeras. The entire NS5A gene from genotypes 2a, 2b, 3a, 4a, 5a, and 6a, or the nucleotide sequence encoding amino acids 11-118 of NS5A, was subcloned into a genotype 1b replicon. For genotype 2a, intergenotypic chimeras with both the JFH and the J6 strain were created. […] Since the majority of genotype 2a sequences in public databases contain the L31M sequence variant, the use of the J6 genotype 2a sequence may better reflect the antiviral potency of NS5A inhibitors.
(§3) These chimeric replicon plasmids were then linearized and in vitro transcribed to RNA. The RNA was used to transiently or stably transfect Huh-LUNET cells by electroporation, and the potencies of test compounds against the chimeras were determined as previously described.

[3] = tested on: HCV genotype 2a (J6 strain) NS5A chimeric replicon; assay: Replicon assay against NS5A sequence of genotype 2a (J6 strain), intergenotypic chimera; type: cell-based; details: Hepatitis C virus, read-out: Genotype 2a (J6)
Experimental: as §1, §2, §3

| Compound | pEC50 [1] | pEC50 (HCV genotype 1a replicon) | pEC50 (HCV genotype 1b replicon) | pEC50 [2] | pEC50 [3] | Genotype 1a (HCV genotype 1a replicon) | Genotype 1b (HCV genotype 1b replicon) |
| --- | --- | --- | --- | --- | --- | --- | --- |
| COC(=O)N[C@H](C(=O)N1C[C@@H](OC)C[C@H]1c1nc(-c2ccc(-c3cc(Cl)c(NC(=O)c4ccc(N5CCN(C(=O)C(C)(C)C)C[C@H]5C)nc4)cc3OC(F)(F)F)cc2)c[nH]1)C1CCOCC1 [Example 15] | 8.00 to 9.00 | > 10.00 | > 10.00 | 9.00 to 10.00 | 9.00 to 10.00 |  |  |
| COC(=O)N[C@H](C(=O)N1C[C@@H](C)C[C@H]1c1nc(-c2ccc(-c3cc(F)c(NC(=O)c4ccc(N5CCN(C(=O)C(C)(C)C)C[C@H]5C)nc4)cc3OC(F)(F)F)cc2)c[nH]1)C(C)C [Example 11, [(S)-1-((2S,4S)-2-{4-[4′-({6-[(R)-4-(2,2-Dimethyl-propionyl)-2-methyl-piperazin-1-yl]-pyridine-3-carbonyl}-amino)-5′-fluoro-2′-trifluoromethoxy-biphenyl-4-yl]-1H-imidazol-2-yl}-4-methyl-pyrrolidine-1-carbonyl)-2-methyl-propyl]-carbamic acid methyl ester] | 6.00 to 8.00 | > 10.00 | > 10.00 | 8.00 to 9.00 | 8.00 to 9.00 |  |  |
| COC(=O)N[C@H](C(=O)N1C[C@@H](SC)C[C@H]1c1nc(-c2ccc(-c3ccc(C(=O)Nc4ccc(N5CCN(C(=O)[C@H]6CC6(C)C)C[C@H]5C)nc4)cc3OC(F)(F)F)cc2)c[nH]1)C(C)C [Example 9, ((S)-1-{(2S,4S)-2-[4-(4′-{6-[(R)-4-((S)-2,2-Dimethyl-cyclopropanecarbonyl)-2-methyl-piperazin-1-yl]-pyridin-3-ylcarbamoyl}-2′-trifluoromethoxy-biphenyl-4-yl)-1H-imidazol-2-yl]-4-methylsulfanyl-pyrrolidine-1-carbonyl}-2-methyl-propyl)-carbamic acid methyl ester] |  | > 10.00 | > 10.00 | 6.00 to 8.00 | 6.00 to 8.00 |  |  |
| COC(=O)N[C@H](C(=O)N1CC2(C[C@H]1c1nc(-c3ccc(-c4ccc(NC(=O)c5ccc(N6CCN(C(=O)[C@H]7CC7(C)C)C[C@H]6C)nc5)cc4OC(F)(F)F)cc3)c[nH]1)OCCO2)C(C)C [Example 4, Methyl (S)-1-((S)-8-(4-(4′-(6-((R)-4-((S)-2,2-dimethylcyclopropanecarbonyl)-2-methylpiperazin-1-yl)nicotinamido)-2′-(trifluoromethoxy)biphenyl-4-yl)-1H-imidazol-2-yl)-1,4-dioxa-7-azaspiro[4.4]nonan-7-yl)-3-methyl-1-oxobutan-2-ylcarbamate] | 9.00 to 10.00 | > 10.00 | > 10.00 | 8.00 to 9.00 | 8.00 to 9.00 |  |  |
| COC(=O)N[C@H](C(=O)N1C[C@@H](C#N)C[C@H]1c1nc(-c2ccc(-c3cc(Cl)c(NC(=O)c4ccc(N5CCN(C(=O)OC(C)(C)C)C[C@H]5C)nc4)cc3OC(F)(F)F)cc2)c[nH]1)C(C)C [Example 17, (R)-4-[5-(5-Chloro-4′-{2-[(2S,4S)-4-cyano-1-((S)-2-methoxycarbonylamino-3-methyl-butyryl)-pyrrolidin-2-yl]-1H-imidazol-4-yl}-2-trifluoromethoxy-biphenyl-4-ylcarbamoyl)-pyridin-2-yl]-3-methyl-piperazine-1-carboxylic acid tert-butyl ester] | 6.00 to 8.00 | 9.00 to 10.00 |  | 6.00 to 8.00 | 6.00 to 8.00 |  |  |
| COC(=O)N[C@H](C(=O)N1C[C@@H](C)C[C@H]1c1nc(-c2ccc(-c3cc(Cl)c(C(=O)Nc4ccc(N5CCN(C(=O)C(C)(C)C)C[C@H]5C)nc4)cc3OC(F)(F)F)cc2)c[nH]1)C1CCOCC1 [Example 19, Methyl ((S)-2-((2S,4S)-2-(4-(5′-chloro-4′-((6-((R)-2-methyl-4-pivaloylpiperazin-1-yl)pyridin-3-yl)carbamoyl)-2′-(trifluoromethoxy)-[1,1′-biphenyl]-4-yl)-1H-imidazol-2-yl)-4-methylpyrrolidin-1-yl)-2-oxo-1-(tetrahydro-2H-pyran-4-yl)ethyl)carbamate] | 6.00 to 8.00 | > 10.00 | > 10.00 | 8.00 to 9.00 | 8.00 to 9.00 |  |  |
| COC(=O)N[C@H](C(=O)N1C[C@@H](C)C[C@H]1c1nc(-c2ccc(-c3ccc(C(=O)Nc4ccc(N5CCN(C(=O)C(C)(C)C)C[C@H]5C)nc4)c(F)c3OC(F)(F)F)cc2)c[nH]1)C1CCOCC1 [Example 21, Methyl ((S)-2-((2S,4S)-2-(4-(3′-fluoro-4′-((6-((R)-2-methyl-4-pivaloyl-piperazin-1-yl)pyridin-3-yl)carbamoyl)-2′-(trifluoromethoxy)-[1,1′-biphenyl]-4-yl)-1H-imidazol-2-yl)-4-methylpyrrolidin-1-yl)-2-oxo-1-(tetrahydro-2H-pyran-4-yl)ethyl)carbamate] | 9.00 to 10.00 | > 10.00 | > 10.00 | 9.00 to 10.00 | 9.00 to 10.00 |  |  |
| COC(=O)N[C@H](C(=O)N1C[C@@H](C)C[C@H]1c1nc(-c2ccc(-c3cc(Cl)c(NC(=O)c4ccc(N5CCN(C(=O)C(C)(C)C)C[C@H]5C)nc4)cc3OC(F)(F)F)cc2)c[nH]1)C1CCOCC1 [Example 14] | 8.00 to 9.00 | > 10.00 | > 10.00 | 9.00 to 10.00 | 9.00 to 10.00 |  |  |
| COC(=O)N[C@H](C(=O)N1C[C@@H](C)C[C@H]1c1nc(-c2ccc(-c3ccc(C(=O)Nc4ccc(N5C[C@H](C)N(C(=O)[C@H]6CC6(C)C)C[C@H]5C)nc4)cc3OC(F)(F)F)cc2)c[nH]1)C(C)C [Example 7, ((S)-1-{(2S,4S)-2-[4-(4′-{6-[(2R,5S)-4-((S)-2,2-Dimethyl-cyclopropanecarbonyl)-2,5-dimethyl-piperazin-1-yl]-pyridin-3-ylcarbamoyl}-2′-trifluoromethoxy-biphenyl-4-yl)-1H-imidazol-2-yl]-4-methyl-pyrrolidine-1-carbonyl}-2-methyl-propyl)-carbamic acid methyl ester] |  | > 10.00 | > 10.00 | 6.00 to 8.00 | 6.00 to 8.00 |  |  |
| COC(=O)N[C@H](C(=O)N1C[C@@H](OC)C[C@H]1c1nc(-c2ccc(-c3cc(Cl)c(NC(=O)c4ccc(N5CCN(C(=O)C(C)(C)CO)C[C@H]5C)nc4)cc3OC(F)(F)F)cc2)c[nH]1)C1CCOCC1 [Example 16, [(S)-2-((2S,4S)-2-{4-[5′-Chloro-4′-({6-[(R)-4-(3-hydroxy-2,2-dimethyl-propionyl)-2-methyl-piperazin-1-yl]-pyridine-3-carbonyl}-amino)-2′-trifluoromethoxy-biphenyl-4-yl]-1H-imidazol-2-yl}-4-methoxy-pyrrolidin-1-yl)-2-oxo-1-(tetrahydro-pyran-4-yl)-ethyl]-carbamic acid methyl ester] | 8.00 to 9.00 | > 10.00 | > 10.00 | 8.00 to 9.00 | 8.00 to 9.00 |  |  |
| COC(=O)N[C@H](C(=O)N1C[C@@H](C)C[C@H]1c1nc(-c2ccc(-c3cc(Cl)c(NC(=O)c4ccc(N5CCN(C(=O)[C@H]6CC6(C)C)C[C@H]5C)nc4)cc3OC(F)(F)F)cc2)c[nH]1)C(C)C [Example 2, [(S)-1-((2S,4S)-2-{4-[5′-Chloro-4′-({6-[(R)-4-((S)-2,2-dimethyl-cyclopropanecarbonyl)-2-methyl-piperazin-1-yl]-pyridine-3-carbonyl}-amino)-2′-trifluoromethoxy-biphenyl-4-yl]-1H-imidazol-2-yl}-4-methyl-pyrrolidine-1-carbonyl)-2-methyl-propyl]-carbamic acid methyl ester] |  | > 10.00 | > 10.00 | 8.00 to 9.00 | 8.00 to 9.00 |  |  |
| COC(=O)N[C@H](C(=O)N1C[C@@H](OC)C[C@H]1c1nc(-c2ccc(-c3cc(Cl)c(NC(=O)c4ccc(N5CCN(C(=O)C(C)(C)C)C[C@H]5C)nc4)cc3OC(F)(F)F)cc2)c[nH]1)C(C)C [Example 13] | 8.00 to 9.00 | > 10.00 | > 10.00 | 9.00 to 10.00 | 9.00 to 10.00 |  |  |
| CNC(=O)N1CCN(c2ccc(C(=O)Nc3cc(C(F)(F)F)c(-c4ccc(-c5c[nH]c([C@@H]6C[C@H](C)CN6C(=O)[C@@H](NC(=O)OC)C(C)C)n5)cc4)cc3Cl)cn2)[C@H](C)C1 [Example 1-30] |  |  |  |  |  | D (D represents pEC50>10 (EC50<0.1 nM)) | D (D represents pEC50>10 (EC50<0.1 nM)) |
| CNC(=O)N1CCN(c2ccc(C(=O)Nc3cc(OC(F)(F)F)c(-c4ccc(-c5c[nH]c([C@@H]6C[C@H](C)CN6C(=O)[C@@H](NC(=O)OC)C(C)C)n5)cc4)cc3Cl)cn2)[C@H](C)C1 [Example 1-17] |  |  |  |  |  | D (D represents pEC50>10 (EC50<0.1 nM)) | D (D represents pEC50>10 (EC50<0.1 nM)) |
